From patent US20120225837A1, “MEDICINAL AGENT FOR DISEASE ASSOCIATED WITH EPSTEIN-BARR VIRUS, AND METHOD FOR SCREENING OF THE MEDICINAL AGENT” (Kyoto University, priority 2007, published 2012)
Read-outs that look alike come from different tables or passages of the source.

What was measured:
143B/EB virus-TK cells = assay: cells; conditions: read-out: CC50 143B/EB Virus-TK
Text: (§1) At first, a primer was designed on the basis of the data base information of NCBI, followed by extracting DNA from B95a cells (J. Virol. 1990; 64(2): 700-5), and the TK gene of an EB virus was amplified by PCR method and cloned in the multicloning site of an expression plasmid vector pCI-neo (pCI-EB-TKneo). Similarly, human-TK gene was also amplified by PCR method and cloned (pCI-huTKneo). Whether the cloned gene fragment was a desired gene or not was judged by determining the base sequence.
(§2) Then, TK-defect human osteosarcoma cells (143B) was transfected by lipofection method (Proc. Natl. Acad. Sci. USA 1987 November; 84(21): 7413-7) with the plasmid vector capable of expressing EB virus-TK gene or the plasmid vector capable of expressing human-TK gene, namely, pCI-EB-TKneo or pCI-huTKneo, and cells having each plasmid introduced therein were selected by the use of neomycin.
(§3) The drug sensitivity of 143B/EB virus-TK, 143B/hu-TK, 143B TK(−) cells and EB virus persistent infection cells was determined on the basis of the cytotoxicity of each drug. That is, cells (143B/EB virus-TK, 143B/hu-TK and 143B TK(−) cells: 5×10^4 cells/100 μl; EB virus persistent infection cells: 20×10^4 cells/100 μl) were added to 96-well flat-bottom culture plates containing 100 μl of various concentrations of each drug. After 5 days of culture, the number of surviving cells was determined by MTT [3-(4,5-dimethylthiazol-2-yl)-2,5-diphenyltetrazolium bromide] assay. The cytotoxicity of the test drugs is expressed in terms of a concentration (CC50) at which the cell viability was decreased to 50%.

143B/hu-TK cells = assay: MTT cytotoxicity assay, cell having human-TK gene introduced; format: cell-based
Text: as §1, §2, §3

KAI3 cells = assay: MTT assay on cells with a chronic active EB virus infectious disease; format: cell-based
Method: as §3
A chronic active EB virus infectious disease is an unfavorable infectious disease caused by infection of not B cells but natural killer T cells (NKT cells) with an EB virus. As such a chronic infection cell strain, KAI3 cells (Clin. Exp. Immunol. 1999 March; 115(3): 385-92) were purchased from Health Science Research Resources Bank, and the effect of the medicinal agent of the present invention on them was investigated by MTT assay. GCV was used as a control agent.

Raji cells = assay: MTT cytotoxic effect on EB virus infection cancer cells (Raji); format: cell-based; conditions: expression of TK −, MTT assay
Method: as §3
(§4) The cytotoxic effect of the medicinal agent of the present invention on EB virus infection cancer cells such as NC37 cells was investigated by MTT assay. […] However, neither of them was effective in cells in which EB virus-TK gene had not been expressed.

EB virus = assay: Acute infection of B lymphocytes with EB virus, EB virus DNA by real-time PCR; format: cell-based; conditions: B lymphocytes of a healthy person, cultured 2 weeks, PBMC#1287 and PBMC#5926, FIG. 2
Method: B lymphocytes were separated from the blood of a healthy person. The B lymphocytes were infected with an EB virus in the presence of the medicinal agent of the present invention and cultured for 2 weeks. Thereafter, the infected B cells were recovered and then washed, followed by extraction of DNA. The amount of EB virus DNA in the B lymphocytes was determined by real-time PCR and taken as a virus copy number.

B95a cells = assay: MTT cytotoxic effect on EB virus infection cancer cells (B95a); format: cell-based; conditions: expression of TK +, MTT assay
Method: as §3, §4

HS-Sultan cells = assay: MTT cytotoxic effect on EB virus infection cancer cells (HS-Sultan); format: cell-based; conditions: expression of TK −, MTT assay
Method: as §3, §4

Namalwa cells = assay: MTT cytotoxic effect on EB virus infection cancer cells (Namalwa); format: cell-based; conditions: expression of TK −, MTT assay
Method: as §3, §4

NC37 cells = assay: MTT cytotoxic effect on EB virus infection cancer cells (NC37); format: cell-based; conditions: NC37, expression of TK +, MTT assay
Method: as §3, §4

[1] = MTT cytotoxicity assay, cell having human-TK gene introduced; format: cell-based; conditions: human
Text: as §1, §2, §3

[2] = MTT assay, 5 days of culture, read-out: CC50 143B/hu-TK

## Cc1cn(C2(C#N)C[C@H](O)[C@@H](CO)O2)c(=O)[nH]c1=O (stereo partly shown) [1′-CN-dT, 1-(C-cyano-2-deoxy-ribofuranosyl)thymine]
143B/EB virus-TK cells; MTT assay, 5 days of culture
  CC50: > 100000 nM
143B/hu-TK cells
  CC50: > 100000 nM

## Cc1cn([C@@H]2S[C@H](CO)[C@@H](O)[C@@H]2F)c(=O)[nH]c1=O [Medicinal agent of the invention, 1-(2-deoxy-2-fluoro-4-thio-β-D-arabinofuranosyl)-5-methyluracil]
KAI3 cells
  Effect on cells with a chronic active EB virus infectious disease: 4.7 µM
Raji cells
  Cytotoxic effect on EB virus infection cancer cells: 22 µM
143B/EB virus-TK cells; Homo sapiens, 143B, 120 h
  CC50: 110 nM
EB virus
  Amount of EB virus DNA in the B lymphocytes (virus copy number): reduces the amount of EB virus DNA in the B lymphocytes and inhibits new infection
B95a cells
  Cytotoxic effect on EB virus infection cancer cells: 2.2 µM
HS-Sultan cells
  Cytotoxic effect on EB virus infection cancer cells: >100 µM
Namalwa cells
  Cytotoxic effect on EB virus infection cancer cells: >100 µM
NC37 cells
  Cytotoxic effect on EB virus infection cancer cells: 2.1 µM
[1]
  CC50 at 5 days: > 300 µM

## 1-(2-deoxy-2-fluoro-4-thio-β-D-arabinofuranosyl)cytosine [4′-S-FMAC]
143B/EB virus-TK cells; MTT assay, 5 days of culture
  CC50: 66 nM
143B/hu-TK cells; [2]
  CC50: 40 nM

## O=c1[nH]c(=O)n([C@H]2C[C@H](O)[C@@H](CO)O2)cc1F [5FdU, 5-fluoro-2′-deoxyuridine]
143B/EB virus-TK cells; Homo sapiens, 143B, 120 h
  CC50: 400 nM
[1]
  CC50 at 5 days: 0.27 µM

## O=c1[nH]c(=O)n([C@H]2C[C@H](O)[C@@H](CO)O2)cc1C=CBr [BVDU, 5-bromovinyl-2′-deoxyuridine]
143B/EB virus-TK cells; Homo sapiens, 143B, 120 h
  CC50: 122000 nM
[1]; [2]
  CC50 at 5 days: > 300 µM

## Nc1nc2c(ncn2COCCO)c(=O)[nH]1 [ACV, acyclovir]
[1]
  CC50 at 5 days: > 100 µM

## O=c1[nH]c(=O)n([C@@H]2O[C@H](CO)[C@@H](O)[C@@H]2O)cc1C=CBr [BvaraU, 1-β-D-arabinofuranosyl-5-bromovinyluracil]
143B/EB virus-TK cells; Homo sapiens, 143B, 120 h
  CC50: > 200000 nM
[1]
  CC50 at 5 days: > 200 µM

## Nc1nc(O)c2ncn(COC(CO)CO)c2n1 [GCV, ganciclovir]
KAI3 cells
  Effect on cells with a chronic active EB virus infectious disease: 105 µM
Raji cells
  Cytotoxic effect on EB virus infection cancer cells: 55 µM
143B/EB virus-TK cells; Homo sapiens, 143B, 120 h
  CC50: > 100000 nM
B95a cells
  Cytotoxic effect on EB virus infection cancer cells: 36 µM
HS-Sultan cells
  Cytotoxic effect on EB virus infection cancer cells: >100 µM
Namalwa cells
  Cytotoxic effect on EB virus infection cancer cells: >100 µM
NC37 cells
  Cytotoxic effect on EB virus infection cancer cells: 27 µM
[1]
  CC50 at 5 days: > 100 µM
